# Results: patent US20100331311A1 (priority 2005, published 2010)
# What was measured:
# [1] = tested on: retinal ganglion cells (RGCs); assay type: in vivo, Sprague-Dawley rats
# [2] = tested on: glaucomatous and normal (contralateral) eyes; parameters: species or system Brown Norway rats; details: rat, in vivo, 3.5 mg/kg
# Description: IOP from glaucomatous and normal (contralateral) eyes was measured in awake animals using a calibrated tonometer (TonoPen XL, Medtronic Solan, Jacksonville, Fla.). Ten to fifteen consecutive readings per eye were taken and averaged to obtain an accurate daily IOP measurement. IOP was measured daily for two weeks after ocular hypertension surgery, and then every other day for the entire duration of the experiment. The mean IOP (mm Hg±S.E.M.) per eye was the average of all IOP readings since the onset of pressure elevation. The maximum IOP measured in each individual eye, glaucomatous or normal contralateral eye, was defined as the peak IOP and this value was used to estimate the mean peak IOP for each group. The delta positive integral IOP was calculated as the area under the IOP curve in the glaucomatous eye minus that of the fellow normal eye from ocular hypertension surgery to euthanasia. Integral IOP represents the total, cumulative IOP exposure throughout the entire experiment.
# For this purpose, Applicant measured intraocular pressure every other day for entire duration of daily treatment with galantamine up to 35 days after ocular hypertension (OHT) surgery.
# [3] = mouse, in vivo; cited from earlier work
# [4] = human, in vivo; cited from earlier work
# [5] = tested on: retinal ganglion cells (RGCs); parameters: species or system Brown Norway rats; details: rat, in vivo, ip, 3.5 mg/kg
# Description: Two weeks after ocular hypertension surgery, animals were subjected to daily treatment with galantamine ˜3.5 mg/kg body weight, intraperitoneal administration (i.p.). Analysis of RGC survival was carried out at 5 weeks after ocular hypertension surgery.
# Therefore, two weeks after ocular hypertension surgery, animals received daily intraperitoneal (i.p) injections of galantamine at a dose of 3.5 mg/kg b.w. as shown in FIG. 2.
# All surgeries were performed in adult male Brown Norway rats, retired breeders, between 10-12 months of age (300-400 g), under general anesthesia by intraperitoneal injection of 1 ml/kg b.w. standard rat cocktail consisting of ketamine (100 mg/ml), xylazine (20 mg/ml) and acepromazine (10 mg/ml).
# Seven days after DiI application, the time required for labeling the entire RGC population, animals were subjected to ocular hypertension surgery as described below. […]
# Analysis of RGC survival was carried out at 5 weeks after ocular hypertension surgery. Quantification of RGC bodies or axons was always performed in duplicate and in a masked fashion. […] Under fluorescence microscopy, DiI-labeled or FluoroGold-labeled neurons were counted in 12 standard retinal areas as previously described (Cheng et al. 2002; Sapieha et al. 2003).
# [6] = target: alpha-7 nicotinic acetylcholine receptor (Rattus norvegicus, UniProt Q05941); parameters: species or system Sprague-Dawley rats; details: in vivo
# Sequence of alpha-7 nicotinic acetylcholine receptor (Q05941 23-502 limits assumed): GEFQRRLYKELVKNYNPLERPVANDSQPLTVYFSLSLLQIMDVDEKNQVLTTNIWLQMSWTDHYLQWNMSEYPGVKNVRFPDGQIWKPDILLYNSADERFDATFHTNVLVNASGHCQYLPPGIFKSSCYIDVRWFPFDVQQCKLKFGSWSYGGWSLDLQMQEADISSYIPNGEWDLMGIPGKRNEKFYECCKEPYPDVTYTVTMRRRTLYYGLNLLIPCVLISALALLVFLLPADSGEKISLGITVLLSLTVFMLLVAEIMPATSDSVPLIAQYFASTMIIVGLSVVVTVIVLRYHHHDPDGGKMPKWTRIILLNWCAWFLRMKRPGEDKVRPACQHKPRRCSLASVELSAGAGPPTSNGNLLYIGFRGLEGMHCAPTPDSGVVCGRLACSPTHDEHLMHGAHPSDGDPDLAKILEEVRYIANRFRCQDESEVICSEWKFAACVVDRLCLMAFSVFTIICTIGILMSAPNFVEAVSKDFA
molecule,measurement,setting,value
"COc1cc2c(cc1OC)C(=O)C(CC1CCN(Cc3ccccc3)CC1)C2 (stereo not shown) [Donepezil, donepezil]","neuroprotection of RGCs after axotomy, galantamine vs donepezil (in words)","[1]; 3.5 mg/kg b.w., single intraocular injection, 1 week after optic nerve axotomy",neuroprotective after axotomy
"COc1ccc2c3c1O[C@H]1C[C@@H](O)C=C[C@@]31CCN(C)C2 [Galantamine, galantamine]",Integral IOP,[2],321 ± 10 mm Hg
same,Mean IOP Control,[2],23.7 ± 0.2 mm Hg
same,Mean IOP Glaucoma,[2],40.7 ± 0.8 mm Hg
same,brain levels,[3],200 to 1000 nM
same,estimated brain concentration of functionally available galantamine,[4],500 to 1200 nM
same,RGCs remaining alive,"[1]; rat, in vivo",~30%
same,survival of axotomized RGCs,"[1]; rat, in vivo",> 75%
same,RGCs preserved,[5],90%
Alpha-bungarotoxin,block of the total neuroprotective effect of galantamine,[6],10-15%
